The subject of assay [1] is store-operated Ca^2+ entry (SOCE). In words: Store-operated Ca2+ entry (SOCE) in isolated human eccrine sweat glands, thapsigargin-induced, Fura-2 340:380 ratio. The class given is cell-based. The settings on record: for IC50: half-maximal concentration from dose-response curve, isolated eccrine glands, 1 μM thapsigargin; for inhibition at 10 µM: reduction in 340:380 ratio at maximal inhibitor concentration 10^−5M, as % of control response, read-out: Potency (% inhibition at 10^−5M). On the procedure: Isolation of Human Eccrine Sweat Glands
Viable human eccrine sweat glands were isolated from samples of human skin (obtained under ethical consent).
Measurement of Intracellular Ca^2+ Concentration
Intracellular [Ca^2+]i was measured in isolated eccrine glands by plating them onto Matrigel coated glass coverslips and loading them with the calcium-sensitive, fluorescent dye Fura-2 by incubation (30-45 minutes, 37° C.) with the membrane-permeant, acetoxymethyl ester form of the dye (Fura-2AM). These coverslips (with dye-loaded glands) were then mounted in a small chamber attached to the stage of an inverted microscope, and the glands superfused (ca. 5 ml minute^−1, 37° C.) with physiological salt solution (PSS; composition (mM): NaCl 130, KCl 5, MgCl2 1, CaCl2 1, HEPES 20, D-Glucose 10, pH 7.4 with NaOH). Changes in [Ca^2+]i were detected using 340/380 nm excitation and 510 nm emission wavelengths, and data expressed as the 340:380 ratio.
Measurement of Store-Operated Ca^2+ Entry (SOCE)
To measure store-operated calcium entry (SOCE), independent of external membrane receptor activation, the following assay protocol was used. First, isolated glands were exposed to 1 μM thapsigargin in Ca^2+-free PSS for 3 minutes. As thapsigargin inhibits the Ca^2+-ATPase uptake pathway in intracellular Ca^2+ stores, this enables Ca^2+ to leak out of the store and subsequently trigger the activation of SOCE. In Ca^2+-free PSS, this process is represented by a very small rise in [Ca^2+]i. Glands were then exposed to 1 μM thapsigargin in Ca^2+-containing PSS for 2 minutes, thereby inducing a rapid increase in [Ca^2+]i via Ca^2+ entry into the cells via the open SOCE pathway. To complete the protocol, thapsigargin is finally removed by washing the glands with Ca^2+ -containing PSS, and allowing the resting [Ca^2+]i level to re-establish itself, and the intracellular Ca^2+ stores to refill. The effectiveness of selected SOCE channel inhibitors were assessed by repeating the above procedure in the presence of the inhibitor (at a chosen concentration) from the time at which thapsigargin was added to release the intracellular Ca^2+ stores, until the cells were finally washed following the Ca^2+ peak initiated by Ca^2+ entry. Dose-response curves were constructed for each inhibitor and the half-maximal concentration (IC50) determined. The potency of each inhibitor was also assessed by expressing the reduction in the 340:380 ratio observed at the maximum concentration (10^−5M) as a % of the control response (i.e. in the absence of inhibitor; see Table 1).

Another assay concerns interleukin (IL)-6. Kind of assay: THP-1 in vitro anti-inflammation assay: IL-6 ELISA in supernatant of PMA-differentiated, LPS-treated THP1-XBlue cells. The class given is cell-based. The settings on record: 24 hours, LPS alone 24176. On the procedure:
The following procedure was used to test the anti-inflammation efficacy of the actives.
THP1-XBlue™ (Cat No: thpx-sp, InvivoGen) cells were cultured as a suspension in RPMI 1640 medium supplemented with 10% FBS, penicillin (10 U/mL)—streptomycin (10 μg/ML). Cells were differentiated in 24-well plates at the density of 5×10^5 cells/well with 100 nM PMA for 72 hours. Cells were then co-treated with pure E. coli lipopolysaccharides (LPS) and with active. After 24 hours, the supernatants were collected and measured for interleukin (IL)-6 as pro-inflammatory bio-marker using enzyme-linked immunosorbent assay (ELISA).

The mark [2] stands for this setting: 20 μM active co-treated with E. coli LPS.

This is an account of results in patent publication US20190358138A1, “A PERSONAL CARE COMPOSITION” (Conopco, Inc., d/b/a UNILEVER, priority 2017, published 2019).

Usually IC50 stands for the concentration at which inhibition is half-maximal. By inhibition is commonly meant the drop in the measured response relative to a control, in per cent.

Take `COc1ccc(/C=C/C(=O)C(C)(C)C(=O)/C=C/c2ccc(OC)c(OC)c2)cc1OC` [Formula 2]: in assay [1], the IC50 is 24 nM and the inhibition at 10 µM was determined as 99%.

On to `COc1cc(CCC(O)CC(O)CCc2ccc(O)c(OC)c2)ccc1O` (stereo not drawn) [Formula 4, 1,7-bis(4-hydroxy-3-methoxyphenyl) heptane-3,5-diol], for which, in assay [1], the IC50 was 91.2 nM and the inhibition at 10 µM is 75.4%. Further, the “Concentration of IL-6” value with interleukin (IL)-6 (setting [2]) was determined as 18218 pg/mL.

Take `COc1ccc(CCC(O)C(C)(C)C(O)CCc2ccc(OC)c(OC)c2)cc1OC` (stereo not drawn) [Formula 5, 1,7-bis (3,4-dimethoxyphenyl)-4,4-dimethylheptane-3,5-diol]: in assay [1], the IC50 is 138 nM and the inhibition at 10 µM is 76%. In addition, the “Concentration of IL-6” value in the assay with interleukin (IL)-6 (10 μM active co-treated with E. coli LPS) was 14880 pg/mL. Also, the “Concentration of IL-6” value in the assay on interleukin (IL)-6 (setting [2]) was 9142 pg/mL.
